Data as given in ChEMBL document CHEMBL1158675, “A bioactive secosterol with an unusual A- and B-ring oxygenation pattern isolated from an Indonesian soft coral Lobophytum sp” (J Nat Prod, 1998).

What was measured:
A2780 = assay: Cytotoxicity against human A2780 cells; type: functional, cell-based
K562 = assay: Cytotoxicity against human K562 cells; type: functional, cell-based

SMILES: CC(C)[C@@H](C)[C@@]1(C)C[C@@H]1[C@@H](C)[C@H]1CC[C@@H]([C@H]2C(=O)[C@@]3(C)CC[C@H](O)C[C@@]34O[C@H]4[C@@H]2O)[C@]1(C)CCO
- IC50 (A2780): 6.3 µM
- IC50 (K562): 7.1 µM
